# Experimental data published in patent US20040067952A1, “Method and composition for treatment of cancer” (priority 2001, published 2004).
# Where two headings read alike, the source gives them in different places.
# Assays:
# HT-29 = assay: [3H]thymidine incorporation, HT-29 colorectal cancer cells; assay type: cell-based; conditions: Homo sapiens, 120 h; HT-29, 1 μM clofazimine, 5 day treatment period; read-out: inhibition of cell proliferation
# HCC = HCC patients, cited from earlier work
# HUH-7 = assay: [3H]Thymidine incorporation assay, HUH-7; assay type: cell-based; conditions: Homo sapiens, 5 days, read-out: % inhibition of [3H] thymidine incorporation (compared to control)
# Experimental: (§1) Method: [^3H]Thymidine incorporation assay was employed to study the effect of clofazimine on cell proliferation. Here, adherent cells (5/000-10/000) were plated into 24-well Corning tissue culture dishes and exposed to culture medium (MEM 5% FBS) containing the vehicle or different concentrations of clofazimine (10^-9 to 10^-5 moles per liter). For Novikoff which is a detached rat cell line, 2000 cells were suspended in 2 ml of DMEM (5%FBS) and kept under the same condition as for attached cells. Media were replaced with fresh media on alternate days. […] The amount of radioactivity incorporated was determined using β-scintillation counter (18). Results are presented as the actual counts per minute against the concentration of the drug used in the culture media or as % inhibition (reduction in thymidine incorporation compared to controls). Treatment of different liver cancer cell lines, HUH-7, HepG2, SKHEP-1, Hep3-B (human cell lines) and Novikoff (rat cell line) with clofazimine led to dose-dependent inhibition of [3H]thymidine incorporation by these cells (Table 1 and FIG. 1). Values represent mean±s.e.m of % inhibition of [3H] thymidine incorporation (compared to control) for each cell line when treated for 5 days with different concentrations of clofazimine.
# LOVO = assay: [3H]thymidine incorporation, LOVO colorectal cancer cells; assay type: cell-based, human; conditions: 5 day treatment
# Experimental: FIG. 8: [3H]thymidine incorporation expressed as counts per minute in LOVO cells (colorectal cancer cell line) treated in culture for 5 days with different concentrations of clofazimine.
# Method: [^3H]Thymidine incorporation assay was employed to study the effect of clofazimine on cell proliferation. Here, adherent cells (5/000-10/000) were plated into 24-well Corning tissue culture dishes and exposed to culture medium (MEM 5% FBS) containing the vehicle or different concentrations of clofazimine (10^−9 to 10^−5 moles per liter). For Novikoff which is a detached rat cell line, 2000 cells were suspended in 2 ml of DMEM (5%FBS) and kept under the same condition as for attached cells. Media were replaced with fresh media on alternate days. At the end of the treatment period (5-10 days), cell cultures were assayed for thymidine incorporation by the addition of 0.5 μCi of [3H]thymiydine to each well for the last 4 h of culture. The amount of radioactivity incorporated was determined using β-scintillation counter (18). Results are presented as the actual counts per minute against the concentration of the drug used in the culture media or as % inhibition (reduction in thymidine incorporation compared to controls). […]
# [1] = Solubility and stability in lipiodol; assay type: physicochemical
# HepG2 = assay: [3H]Thymidine incorporation assay, HepG2; assay type: cell-based; conditions: Homo sapiens, 5 days, read-out: % inhibition of [3H] thymidine incorporation (compared to control)
# Experimental: as §1
# [2] = reference 9; cited from earlier work
# Hep3-B = assay: [3H]Thymidine incorporation assay, Hep3-B; assay type: cell-based; conditions: Homo sapiens, Hep3B, Hep3-β, 5 days, read-out: % inhibition of [3H] thymidine incorporation (compared to control)
# Experimental: as §1
# SKHEP-1 = assay: [3H]Thymidine incorporation assay, SKHEP-1; assay type: cell-based; conditions: Homo sapiens, SK-HEP1, 5 days, read-out: % inhibition of [3H] thymidine incorporation (compared to control)
# Experimental: as §1
# C-170 = assay: [3H]thymidine incorporation, C-170 colorectal cancer cells; assay type: cell-based; conditions: Homo sapiens, C170, 120 h; C-170, 1 μM clofazimine, 5 day treatment period; read-out: inhibition of cell proliferation
# Experimental: Method: [^3H]Thymidine incorporation assay was employed to study the effect of clofazimine on cell proliferation. Here, adherent cells (5/000-10/000) were plated into 24-well Corning tissue culture dishes and exposed to culture medium (MEM 5% FBS) containing the vehicle or different concentrations of clofazimine (10^−9 to 10^−5 moles per liter). For Novikoff which is a detached rat cell line, 2000 cells were suspended in 2 ml of DMEM (5%FBS) and kept under the same condition as for attached cells. Media were replaced with fresh media on alternate days. At the end of the treatment period (5-10 days), cell cultures were assayed for thymidine incorporation by the addition of 0.5 μCi of [3H]thymiydine to each well for the last 4 h of culture. The amount of radioactivity incorporated was determined using β-scintillation counter (18). Results are presented as the actual counts per minute against the concentration of the drug used in the culture media or as % inhibition (reduction in thymidine incorporation compared to controls). Treatment of different liver cancer cell lines, HUH-7, HepG2, SKHEP-1, Hep3-B (human cell lines) and Novikoff (rat cell line) with clofazimine led to dose-dependent inhibition of [3H]thymidine incorporation by these cells (Table 1 and FIG. 1).
# Novikoff = assay: [3H]Thymidine incorporation assay, Novikoff; assay type: cell-based; conditions: Rattus norvegicus, 5 days, read-out: % inhibition of [3H] thymidine incorporation (compared to control)
# Experimental: as §1
smiles,measurement,setting,value
"CC(C)/N=c1/cc2n(-c3ccc(Cl)cc3)c3ccccc3nc-2cc1Nc1ccc(Cl)cc1 [clofazimine, 3-(4-chloroanilino)-10-(4-chlorophenyl)-2, 10-dihydro-2-(isopropylimino)-phenazine]",inhibition at 1 µM,HT-29,> 70%
same,objective response,"HCC; clofazimine alone, Falkson et al.",no objective response
same,objective response,"HCC; oral clofazimine, 3/30, Ruff et al.",10%
same,stabilization of the disease,"HCC; oral clofazimine, 13/30, for up to 20 months, Ruff et al.",43%
same,inhibition at 0.01 µM,"HUH-7; HUH-7, clofazimine 0.01 μM",0%
same,inhibition at 0.1 µM,"HUH-7; HUH-7, clofazimine 0.1 μM",38.3 ± 7.2%
same,inhibition at 0.5 µM,"HUH-7; HUH-7, clofazimine 0.5 μM",51.1 ± 3.4%
same,inhibition at 1 µM,"HUH-7; HUH-7, clofazimine 1.0 μM",88.9 ± 1.1%
same,inhibition at 5 µM,"HUH-7; HUH-7, clofazimine 5.0 μM",96.7 ± 0.9%
same,inhibition of proliferation as measured by [3H]thymidine incorporation,LOVO,profound inhibition of proliferation
same,solubility in lipiodol,[1],highly soluble
same,stability in lipiodol,[1],stable
same,inhibition at 0.01 µM,"HepG2; HepG2, clofazimine 0.01 μM",21 ± 1.9%
same,inhibition at 0.1 µM,"HepG2; HepG2, clofazimine 0.1 μM",38.2 ± 2.2%
same,inhibition at 0.5 µM,"HepG2; HepG2, clofazimine 0.5 μM",52.9 ± 4.7%
same,inhibition at 1 µM,"HepG2; HepG2, clofazimine 1.0 μM",75.6 ± 2.7%
same,inhibition at 5 µM,"HepG2; HepG2, clofazimine 5.0 μM",92.4 ± 1.9%
same,log p (octanol/water),[2],7.4
same,inhibition at 0.01 µM,Hep3-B; clofazimine 0.01 μM,28.4 ± 7.4%
same,inhibition at 0.1 µM,Hep3-B; clofazimine 0.1 μM,62.3 ± 3.1%
same,inhibition at 0.5 µM,Hep3-B; clofazimine 0.5 μM,91.6 ± 1.1%
same,inhibition at 1 µM,Hep3-B; clofazimine 1.0 μM,94.3 ± 0.07%
same,inhibition at 5 µM,Hep3-B; clofazimine 5.0 μM,95.4 ± 1.4%
same,inhibition at 0.01 µM,"SKHEP-1; SKHEP-1, clofazimine 0.01 μM",30.3 ± 2.9%
same,inhibition at 0.1 µM,"SKHEP-1; SKHEP-1, clofazimine 0.1 μM",62.7 ± 7.1%
same,inhibition at 0.5 µM,"SKHEP-1; SKHEP-1, clofazimine 0.5 μM",69 ± 3.2%
same,inhibition at 1 µM,"SKHEP-1; SKHEP-1, clofazimine 1.0 μM",70.9 ± 2.1%
same,inhibition at 5 µM,"SKHEP-1; SKHEP-1, clofazimine 5.0 μM",97.1 ± 1.7%
same,inhibition at 1 µM,C-170,> 70%
same,inhibition at 0.01 µM,Novikoff; clofazimine 0.01 μM,0%
same,inhibition at 0.1 µM,Novikoff; clofazimine 0.1 μM,0%
same,inhibition at 0.5 µM,Novikoff; clofazimine 0.5 μM,11.7 ± 3.3%
same,inhibition at 1 µM,Novikoff; clofazimine 1.0 μM,18.9 ± 2.9%
same,inhibition at 5 µM,Novikoff; clofazimine 5.0 μM,42.7 ± 4.1%
